The target of one data set is T1, UGT1A6 (Homo sapiens, UniProt P19224).
T1 construct: recombinant UGT1A6
T1 sequence (P19224 27-532): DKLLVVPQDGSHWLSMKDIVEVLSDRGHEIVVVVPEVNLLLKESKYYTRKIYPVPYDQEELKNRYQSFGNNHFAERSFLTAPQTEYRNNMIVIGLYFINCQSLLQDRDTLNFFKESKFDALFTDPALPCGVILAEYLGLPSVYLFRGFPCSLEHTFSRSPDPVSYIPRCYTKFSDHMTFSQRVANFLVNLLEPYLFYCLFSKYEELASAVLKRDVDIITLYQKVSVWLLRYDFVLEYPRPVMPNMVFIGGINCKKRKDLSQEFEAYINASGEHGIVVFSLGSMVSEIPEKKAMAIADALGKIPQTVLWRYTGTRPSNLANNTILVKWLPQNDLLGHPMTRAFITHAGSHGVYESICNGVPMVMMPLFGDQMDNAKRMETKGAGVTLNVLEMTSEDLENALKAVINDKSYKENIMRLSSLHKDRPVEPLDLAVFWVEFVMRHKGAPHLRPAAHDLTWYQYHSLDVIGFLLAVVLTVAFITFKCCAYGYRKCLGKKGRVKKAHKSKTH
The experiment in a line: glucuronide formation by recombinant enzyme, UHPLC-MS/MS. The data set is classed as biochemical.

The target in data set [1] is T2, UGT2B10 (Homo sapiens, UniProt P36537).
T2 construct: recombinant UGT2B10
T2 sequence (P36537 24-528): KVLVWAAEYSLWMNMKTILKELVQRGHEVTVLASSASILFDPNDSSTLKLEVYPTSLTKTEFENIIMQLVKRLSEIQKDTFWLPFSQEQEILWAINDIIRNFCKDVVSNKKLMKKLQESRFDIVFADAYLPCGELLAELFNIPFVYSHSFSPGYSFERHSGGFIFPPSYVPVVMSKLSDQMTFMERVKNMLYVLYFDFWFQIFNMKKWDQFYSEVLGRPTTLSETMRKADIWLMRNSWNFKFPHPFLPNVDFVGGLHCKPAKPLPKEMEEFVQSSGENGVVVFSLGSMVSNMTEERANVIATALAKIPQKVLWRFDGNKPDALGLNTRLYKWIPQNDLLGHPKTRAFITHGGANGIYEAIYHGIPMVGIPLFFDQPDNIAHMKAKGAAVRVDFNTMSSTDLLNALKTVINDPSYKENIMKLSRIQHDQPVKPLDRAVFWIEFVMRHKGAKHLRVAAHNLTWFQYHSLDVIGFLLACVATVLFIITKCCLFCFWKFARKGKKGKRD
The experiment in a line: inhibition of cotinine N-glucuronidation by recombinant enzyme, UHPLC-MS/MS. The data set is classed as biochemical.

In data set [2] the target is T2, UGT2B10. Nature of the data set: inhibition of cotinine N-glucuronidation at […], UHPLC-MS/MS. The data set is classed as biochemical. The conditions noted are these: read-out: % inhibition at 10 μM.
Substrate in the data set “purified protein”: CN1C(=O)CC[C@H]1c1cccnc1
The experiment in a line: purified protein. The conditions noted are these: UDPGA; MgCl2.

Read-outs that look alike come from different tables or passages of the source.

As a reminder, the IC50 is the midpoint of a concentration-inhibition curve. As a reminder, the inhibition is the share of the control response that was lost under treatment. As usually defined, the Km is the substrate concentration at which the rate is half of its maximum.

For `COc1c(C)c2c(c(O)c1C/C=C(\C)CCC(=O)O)C(=O)OC2` [MPA, mycophenolic acid], the “glucuronide formation by recombinant enzyme, UHPLC-MS/MS” value at UGT1A6 was “incubations of APAP and MPA with UGT1A6 produced APAP‐glucuronide and MPA‐ß‐D‐glucuronide, respectively”. For the same molecule, the half-maximal inhibitory concentration (IC50) on UGT2B10 [1] (read-out: IC50) was determined as 380 µM.

Regarding `CN(C)CCC=C1c2ccccc2CCc2ccccc21` [AMT, amitriptyline], the inhibition at 10 µM on UGT2B10 [2] is 97.5%. In the case of `O=C1Nc2ccc(Cl)cc2C(c2ccccc2Cl)=NC1O` (stereo not drawn) [LOR, lorazepam], on UGT2B10 [1], the IC50 turned out to be 0.01 µM. On to `CC(=O)Nc1ccc(O)cc1` [APAP, acetaminophen], for which, on UGT1A6, the “glucuronide formation by recombinant enzyme, UHPLC-MS/MS” value was “incubations of APAP and MPA with UGT1A6 produced APAP‐glucuronide and MPA‐ß‐D‐glucuronide, respectively”.

B1: UGT2B10 (Homo sapiens) (protein)
chain: T2 sequence (P36537 24-528)
Take B1: in the data set “purified protein”, the Km was 4.043 mM.
